Each structure is given as a SMILES string. A value given as a limit tells only on which side of the number the result lay.

The target in one experiment is T1, 11β-HSD1 (Homo sapiens, UniProt P28845).
T1 construct: expressed in transfected cells; host or cells: HEK 293 (stably transfected, HEK 293/HSD11B1)
T1 sequence (P28845 whole entry): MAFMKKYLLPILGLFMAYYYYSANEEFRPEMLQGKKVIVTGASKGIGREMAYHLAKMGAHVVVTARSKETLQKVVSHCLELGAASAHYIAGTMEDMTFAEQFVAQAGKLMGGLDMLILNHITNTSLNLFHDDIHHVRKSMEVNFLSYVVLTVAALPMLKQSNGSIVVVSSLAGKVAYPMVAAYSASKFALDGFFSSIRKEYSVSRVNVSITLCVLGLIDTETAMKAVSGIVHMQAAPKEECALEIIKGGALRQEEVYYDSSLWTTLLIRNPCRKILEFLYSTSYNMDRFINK
Briefly: 11β-HSD1 HEK assay (cell based assay, SPA). The conditions noted are these: HEK293; at 1 μM; whole HEK 293 cells stably transfected with the HSD11B1 gene, 3H-cortisone substrate; read-out: Activity (inhibition of 11β-HSD1). The protocol: 11β-HSD1 HEK Assay Protocol (Cell Based Assay)
11β-HSD1 activity is measured in whole HEK 293 cells stably transfected with the HSD11B1 gene. Cells are incubated in 96-well microplates in the presence of tritiated substrate. Enzyme activity is determined by measuring the amount of tritated product by scintillation proximity assay (SPA). Assay plates contain internal high and low controls to allow calculation of percentage inhibition.
1. […] 2. When the cells are 80% confluent the medium is removed from each well. 100 μl fresh, serum-free, medium containing ^3H-cortisone and test compound in 1% DMSO is added to each well*. Control wells are also dispensed. […] 3. The plate is incubated at 37° C. for the required time period. 4. 50 μl of media is removed from each well and transferred to a microplate containing 100 μl of a pre-incubated mixture of anti-cortisol antibody and SPA bead. The mixture is incubated with gentle shaking until equilibrium is reached, before transferring to a scintillation counter to establish the enzyme activity in each sample.
10 μl of compound is dispensed into each well of a 96-well microplate in 10% DMSO at 100 μM concentration. 90 μl media containing ^3H-cortisone is added to each well. The compound/media/substrate mixture is then transferred to the assay plate containing the cells. […]
Regarding `COc1cncc(COCC(=O)C23CC4CC(CC(C4)C2)C3)c1` [Example 98, 1-Adamantan-1-yl-2-(5-methoxy-pyridin-3-ylmethoxy)-ethanone], the inhibition at 1 µM was above 60%.
Take `Cc1cc(C)c(C(=O)CSc2nccn2C)c(C)c1` [Example 74, 2-(1-Methyl-1H-imidazol-2-ylsulfanyl)-1-(2,4,6-trimethyl-phenyl)-ethanone]: the inhibition at 1 µM is below 20%.
Turning to `O=C(CSCc1ccncc1)C12CC3CC(CC(C3)C1)C2` [Example 81, 1-Adamantan-1-yl-2-(pyridin-4-ylmethylsulfanyl)-ethanone], the inhibition at 1 µM was above 60%.
Still for that read-out and setting: next, `Cn1cnnc1SCC(=O)C(C)(C)c1ccc(Cl)cc1` [Example 99, 3-(4-Chlorophenyl)-3-methyl-1-(4-methyl-4H-1,2,4-triazol-3-ylthio)butan-2-one]: 20 to 60%.
In the case of `Cn1ccnc1SCC(=O)C1(c2ccc(Cl)cc2)CCCCC1` [Example 40, 1-[1-(4-Chloro-phenyl)-cyclohexyl]-2-(1-methyl-1H-imidazol-2-ylsulfanyl)-ethanone], the inhibition at 1 µM is 20 to 60%.
`O=C(CSCc1ccc(C(F)(F)F)nc1)C12CC3CC(CC(C3)C1)C2` [Example 59, 1-Adamantan-1-yl-2-(6-trifluoromethyl-pyridin-3-ylmethylsulfanyl)-ethanone]: the inhibition at 1 µM fell in the range of 20 to 60%.
For `Cc1cc(C)c(C(=O)COc2ccc(C)nc2)c(C)c1` [Example 70, 2-(6-Methyl-pyridin-3-yloxy)-1-(2,4,6-trimethyl-phenyl)-ethanone], the inhibition at 1 µM was below 20%.
The same measure, in the same setting: next, `O=C(CS(=O)(=O)c1ccccn1)C1(c2ccc(Cl)cc2)CCCCC1` [Example 48, 1-[1-(4-Chloro-phenyl)-cyclohexyl]-2-(pyridine-2-sulfonyl)-ethanone]: 20 to 60%; `Cc1cc(C)c(C(=O)C[S+]([O-])c2ccccn2)c(C)c1` (stereo not shown) [Example 82, 1-mesityl-2-(pyridin-2-ylsulfinyl)ethanone]: below 20%.
As to `Cc1cc(C)c(C(=O)CSc2ccccn2)c(C)c1` [Example 73, 2-(Pyridin-2-ylsulfanyl)-1-(2,4,6-trimethyl-phenyl)-ethanone], the inhibition at 1 µM is below 20%.
As to `Cc1cc(C)c(C(=O)COc2cccnc2)c(C)c1` [Example 72, 2-(Pyridin-3-yloxy)-1-(2,4,6-trimethyl-phenyl)-ethanone], the inhibition at 1 µM was below 20%.
Same read-out and setting: next, `Cn1cnnc1[S+]([O-])CC(=O)C1(c2ccc(Cl)cc2)CCC1` (stereo not shown) [Example 109, 1-(1-(4-Chlorophenyl)cyclobutyl)-2-(4-methyl-4H-1,2,4-triazol-3-ylsulfinyl)ethanone]: below 20%; `Cc1ccc(OCC(=O)C(C)(C)c2ccc(Cl)cc2)cn1` [Example 71, 3-(4-Chloro-phenyl)-3-methyl-1-(6-methyl-pyridin-3-yloxy)-butan-2-one]: above 60%; `Cn1ccnc1[S+]([O-])CC(=O)C1(c2ccc(Cl)cc2)CCCC1` (stereo not shown) [Example 44, 1-[1-(4-Chloro-phenyl)-cyclopentyl]-2-(1-methyl-1H-imidazole-2-sulfinyl)-ethanone]: 20 to 60%.
Same read-out and setting: next, `O=C(CSc1ccccn1)C12CC3CC(CC(C3)C1)C2` [Example 12, 1-Adamantan-1-yl-2-(pyridin-2-ylsulfanyl)-ethanone]: above 60%.
Consider `O=C(CS(=O)(=O)Cc1ccncc1)C12CC3CC(CC(C3)C1)C2` [Example 83, 1-Adamantan-1-yl-2-(pyridin-4-ylmethanesulfonyl)-ethanone], for which the inhibition at 1 µM was above 60%.
Turning to `CC(=O)Nc1nnc(S(=O)(=O)CC(=O)C23CC4CC(CC(C4)C2)C3)s1` [Example 93, N-(5-{[2-(Adamantan-1-yl)-2-oxoethane]sulfonyl}-1,3,4-thiadiazol-2-yl)acetamide], the inhibition at 1 µM is above 60%.
Still for that read-out and setting: next, `O=C(COc1ccc(C(F)(F)F)cn1)C12CC3CC(CC(C3)C1)C2` [Example 55, 1-Adamantan-1-yl-2-(5-trifluoromethyl-pyridin-2-yloxy)-ethanone]: 20 to 60%; `O=C(C[S+]([O-])c1ccc(C(F)(F)F)cn1)C12CC3CC(CC(C3)C1)C2` (stereo not shown) [Example 68, 1-Adamantan-1-yl-2-(5-trifluoromethyl-pyridine-2-sulfinyl)-ethanone]: 20 to 60%.
For `O=C(CSc1ccccn1)C1(c2ccc(Cl)cc2)CCC1` [Example 20, 1-[1-(4-Chloro-phenyl)-cyclobutyl]-2-(pyridin-2-ylsulfanyl)-ethanone], the inhibition at 1 µM fell in the range of 20 to 60%.
Still for that read-out and setting: next, `Cn1ccnc1SCC(=O)C1(c2ccc(Cl)cc2)CCC1` [Example 21, 1-[1-(4-Chloro-phenyl)-cyclobutyl]-2-(1-methyl-1H-imidazol-2-ylsulfanyl)-ethanone]: 20 to 60%; `O=C(COc1cccc(Cl)n1)C12CC3CC(CC(C3)C1)C2` [Example 58, 1-Adamantan-1-yl-2-(6-chloro-pyridin-2-yloxy)-ethanone]: 20 to 60%.
Same read-out and setting: next, `O=C(C[S+]([O-])Cc1ccc(Cl)nc1)C12CC3CC(CC(C3)C1)C2` (stereo not shown) [Example 65, 1-Adamantan-1-yl-2-(6-chloro-pyridin-3-ylmethanesulfinyl)-ethanone]: above 60%.
As to `Cn1ccnc1[S+]([O-])CC(=O)C1(c2ccc(Cl)cc2)CC1` (stereo not shown) [Example 2, 1-[1-(4-Chloro-phenyl)-cyclopropyl]-2-(1-methyl-1H-imidazole-2-sulfinyl)-ethanone], the inhibition at 1 µM was below 20%.
Still for that read-out and setting: next, `NC(=O)c1ccc(SCC(=O)C23CC4CC(CC(C4)C2)C3)nc1` [Example 37, 6-(2-Adamantan-1-yl-2-oxo-ethylsulfanyl)-nicotinamide]: above 60%; `Cc1nnc([S+]([O-])CC(=O)C23CC4CC(CC(C4)C2)C3)s1` (stereo not shown) [Example 80, 1-Adamantan-1-yl-2-(5-methyl-[1,3,4]thiadiazole-2-sulfinyl)-ethanone]: above 60%; `O=C(COCc1ccccn1)C1(c2ccc(Cl)cc2)CCC1` [Example 42, 1-[1-(4-Chloro-phenyl)-cyclobutyl]-2-(pyridin-2-ylmethoxy)-ethanone]: below 20%.
As for `O=C(COCc1ccc(C(F)(F)F)nc1)C12CC3CC(CC(C3)C1)C2` [Example 56, 1-Adamantan-1-yl-2-(6-trifluoromethyl-pyridin-3-ylmethoxy)-ethanone], the inhibition at 1 µM fell in the range of 20 to 60%.
As to `Cn1ccnc1S(=O)(=O)CC(=O)C1(c2ccc(Cl)cc2)CCC1` [Example 24, 1-[1-(4-Chloro-phenyl)-cyclobutyl]-2-(1-methyl-1H-imidazole-2-sulfonyl)-ethanone], the inhibition at 1 µM was below 20%.
Take `Cc1cccc(S(=O)(=O)CC(=O)C23CC4CC(CC(C4)C2)C3)n1` [Example 30, 1-(adamantan-1-yl)-2-[(6-methylpyridine-2-)sulfonyl]ethan-1-one]: the inhibition at 1 µM was above 60%.
As for `O=C(C[S+]([O-])c1ccccn1)C1(c2ccc(Cl)cc2)CC1` (stereo not shown) [Example 5, 1-[1-(4-Chloro-phenyl)-cyclopropyl]-2-(pyridine-2-sulfinyl)-ethanone], the inhibition at 1 µM lay within 20 to 60%.
Still for that read-out and setting: next, `O=C(CS(=O)(=O)Cc1ccccn1)C12CC3CC(CC(C3)C1)C2` [Example 16, 1-Adamantan-1-yl-2-(pyridin-2-ylmethanesulfonyl)-ethanone]: above 60%; `Cn1ccnc1SCC(=O)C(C)(C)c1ccc(Cl)cc1` [Example 52, 3-(4-Chloro-phenyl)-3-methyl-1-(1-methyl-1H-imidazol-2-ylsulfanyl)-butan-2-one]: above 60%; `Cn1cnnc1SCC(=O)C1(c2ccc(Cl)cc2)CCC1` [Example 108, 1-(1-(4-Chlorophenyl)cyclobutyl)-2-(4-methyl-4H-1,2,4-triazol-3-ylthio)ethanone]: 20 to 60%.
Same read-out and setting: next, `O=C(CSc1ccccn1)C1(c2ccc(Cl)cc2)CC1` [Example 4, 1-[1-(4-Chloro-phenyl)-cyclopropyl]-2-(pyridin-2-ylsulfanyl)-ethanone]: below 20%.
With `Cn1ccnc1S(=O)(=O)CC(=O)C1(c2ccc(Cl)cc2)CC1` [Example 3, 1-[1-(4-Chloro-phenyl)-cyclopropyl]-2-(1-methyl-1H-imidazole-2-sulfonyl)-ethanone], the inhibition at 1 µM is below 20%.
In the case of `COc1ccncc1COCC(=O)C12CC3CC(CC(C3)C1)C2` [Example 85, 2-((4-methoxypyridin-3-yl)methoxy)-1-adamantylethanone], the inhibition at 1 µM is above 60%.
Consider `O=C(COc1cncc(Cl)c1)C12CC3CC(CC(C3)C1)C2` [Example 57, 1-Adamantan-1-yl-2-(5-chloro-pyridin-3-yloxy)-ethanone], for which the inhibition at 1 µM is 20 to 60%.
Take `O=C(CSc1ccccn1)C1(c2ccc(Cl)cc2)CCCCC1` [Example 47, 1-[1-(4-Chloro-phenyl)-cyclohexyl]-2-(pyridin-2-ylsulfanyl)-ethanone]: the inhibition at 1 µM was 20 to 60%.

The same experiment, now with this note: at 1 μM; whole HEK 293 cells stably transfected with the HSD11B1 gene, 3H-cortisone substrate.
In the case of `Cn1ccnc1S(=O)(=O)CC(=O)C1(c2ccc(Cl)cc2)CCCCC1` [Example 45, 1-[1-(4-Chloro-phenyl)-cyclohexyl]-2-(1-methyl-H-imidazole-2-sulfonyl)-ethanone], the “Activity (inhibition of 11β-HSD1)” value is “b (from 20 to 60% inhibition of 11β-HSD1 at 1 μM)”.

The record behind these values is patent publication US20110112151A1, “COMPOUND CAPABLE OF INHIBITING 11-BETA HYDROXYSTERIOD DEHYDROGENASE” (priority 2008, published 2011).
